According to patent publication US20170217946A1, “AMINO-SUBSTITUTED ISOXAZOLES” (Bayer Pharma Aktiengesellschaft, priority 2014, published 2017):

Target: T1, human kinase Mps-1 (Homo sapiens, UniProt P33981)
T1 construct: human full length recombinant Mps-1 kinase; GST (N); purchased Invitrogen, Karslruhe, Germany PV4071
T1 sequence (P33981 1-857): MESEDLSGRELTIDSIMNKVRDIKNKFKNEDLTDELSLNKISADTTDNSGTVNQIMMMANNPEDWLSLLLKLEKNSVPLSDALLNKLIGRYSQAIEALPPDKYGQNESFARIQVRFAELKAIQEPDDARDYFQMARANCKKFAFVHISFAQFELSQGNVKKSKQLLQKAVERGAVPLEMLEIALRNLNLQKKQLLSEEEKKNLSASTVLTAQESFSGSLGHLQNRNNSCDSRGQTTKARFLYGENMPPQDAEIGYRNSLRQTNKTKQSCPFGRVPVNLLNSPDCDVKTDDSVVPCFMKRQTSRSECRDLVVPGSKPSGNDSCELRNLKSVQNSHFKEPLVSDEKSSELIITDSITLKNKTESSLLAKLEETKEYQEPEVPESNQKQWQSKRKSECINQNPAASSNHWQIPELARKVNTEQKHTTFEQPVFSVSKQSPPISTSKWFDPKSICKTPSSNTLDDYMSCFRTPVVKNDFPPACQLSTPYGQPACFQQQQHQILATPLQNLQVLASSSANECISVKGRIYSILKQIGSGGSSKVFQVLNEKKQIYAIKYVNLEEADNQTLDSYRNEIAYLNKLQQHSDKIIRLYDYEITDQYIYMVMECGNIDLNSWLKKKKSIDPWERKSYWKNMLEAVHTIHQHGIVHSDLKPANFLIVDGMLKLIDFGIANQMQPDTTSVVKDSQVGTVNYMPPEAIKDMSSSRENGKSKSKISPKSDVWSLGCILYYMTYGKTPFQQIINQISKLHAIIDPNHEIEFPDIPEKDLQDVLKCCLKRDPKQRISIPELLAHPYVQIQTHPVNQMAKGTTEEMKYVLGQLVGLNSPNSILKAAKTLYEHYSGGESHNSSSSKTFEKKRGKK
Experiment: Mps-1 kinase assay (TR-FRET)
Format: biochemical
Settings: 10 μM ATP; read-out: Mps1 avg (IC50)
Method: The human kinase Mps-1 phosphorylates a biotinylated substrate peptide. Detection of the phosphorylated product is achieved by time-resolved fluorescence resonance energy transfer (TR-FRET) from Europium-labelled anti-phospho-Serine/Threonine antibody as donor to streptavidin labelled with cross-linked allophycocyanin (SA-XLent) as acceptor. Compounds are tested for their inhibition of the kinase activity.
N-terminally GST-tagged human full length recombinant Mps-1 kinase (purchased from Invitrogen, Karslruhe, Germany, cat. no PV4071) was used. […]
The resulting mixture was incubated 1 h at 22° C. to allow the binding of the phosphorylated peptide to the anti-phospho(Ser/Thr)-Europium-antibody. Subsequently the amount of phosphorylated substrate was evaluated by measurement of the resonance energy transfer from the Europium-labelled anti-phospho(Ser/Thr) antibody to the Streptavidin-XLent. Therefore, the fluorescence emissions at 620 nm and 665 nm after excitation at 350 nm was measured in a Viewlux TR-FRET reader (PerkinElmer LAS, Rodgau-Jügesheinn, Germany). The “blank-corrected normalized ratio” (a Viewlux specific readout, similar to the traditional ratio of the emissions at 665 nm and at […], in which blank and Eu-donor crosstalk are subtracted from the 665 nm signal before the ratio is calculated) was taken as the measure for the amount of phosphorylated substrate. […]

- IC50: 16 µM
SMILES: Cc1noc(Nc2cnc(C(=O)NC3CCN(CC(F)F)CC3)cn2)c1C(=O)Nc1ccc(F)c(F)c1 [Example 1b, N-[1-(2,2-Difluoroethyl)piperidin-4-yl]-5-({4-[(3,4-difluorophenyl)carbamoyl]-3-methyl-1,2-oxazol-5-yl}amino)pyrazine-2-carboxamide]
